The values below come from patent US9707244B2, “Compositions and methods for treating conditions that affect epidermis” (Gencia Corporation, priority 2013, dated 2017).

Entries after “also recorded” stand apart in the source; their conditions may differ.

One assay has as its system C57BL/6J mice. The experiment in a line: Fore-limb grip strength test. Type of assay: in vivo. The settings on record: 10, 20, 30 mg/kg p.o. once daily for 30 days. The protocol:
Group Setting: C57BL/6J mice were randomly assigned into five groups with different treatment started with balanced full-paw and fore-paw grip strength. Seventy five female mice were dosed at 4 PM for 30 consecutive days (qd). • 1. Vehicle (p.o. via oral gavage once daily for 30 days, n=15) • 2. Creatine (300 mg/kg, p.o. via oral gavage once daily for 30 days, n=15) • 3. Mitocreatine (10 mg/kg, p.o. via oral gavage once daily for 30 days, n=15) • 4. Mitocreatine (20 mg/kg, p.o. via oral gavage once daily for 30 days, n=15) • 5. Mitocreatine (30 mg/kg, p.o. via oral gavage once daily for 30 days, n=15). One hundred female mice were tested before dosing for a baseline of grip strength. 75 mice were selected and randomly assigned into 5 groups for different treatment. Seventy five mice (group 1-5) were test on day 31. Mice were allowed to acclimate to the testing room for at least 30 min before tested. All animals were marked on the tail with a permanent mark pen. Mouse was lowered towards the grid on the push-pull gauge until it grabbed with both front paws Animal was gently pulled backwards by the tail with an angle less than 15° until it released its grip of both fore-paws. The maximal fore-limb grip force was recorded on the strain gauge. Test was repeated 3 times with 15 min interval each time and the average was used. […]

In assay [1] the test system is AG11073 senescent fibroblasts. The experiment in a line: Intracellular collagen type I immunolabeling and image analysis. It is filed as cell-based, human. The protocol:
The cell line AG11073 senescent fibroblasts, at passage 20, were plated onto a multi-chambered glass slide. Dulbecco's Modified Eagle Medium (DMEM) supplemented with the appropriate serum and antibiotics and either containing vehicle or 25 nM of Mitocreatine was added to each chamber. Cells were treated once daily with fresh media containing either vehicle or 25 nM mitocreatine for seven days. At the completion of the treatment period, the cells were washed with warm PBS and fixed with ice cold acetone. The chambers were removed and the slide immunoprobed with an anti-collagen type I antibody (ab292, Abcam). An Alexa-488 secondary antibody was used for detection and DAPI used to stain nuclei.
The cells utilized were human skin fibroblast acquired from Coriell Cell Repository. The cell line AG11073 is untransformed human skin fibroblasts from a person. The primary culture was initiated from explants of a 2 mm-punch biopsy. The cell line AG16409 is untransformed human skin fibroblasts from a person. Aged senescent fibroblasts (Coriell AG11073) were cultured for 7 days with either vehicle or 25 nM mitocreatine. Cells were probed with anti-collagen type I antibody (green) and DAPI (blue) for nuclei to assess changes in collagen type I expression.
Cell area and mean pixel intensity of the green fluorescence was acquired using Image J software. Image analysis supports an increase in cell area as well as an increase in intracellular collagen type I.
Image data from the immunolabeling of collage type I study was also used to quantify the amount of collagen immunolabeling in the AG11073 senescent fibroblast treated with 25 nM Mitocreatine in vehicle for seven days.

For assay [2], the system named is AG16409 untransformed human skin fibroblasts from a person. The experiment in a line: Cellular senescence assay (SA-β-Gal fluorometric), young fibroblasts. It is filed as cell-based. The settings on record: increasing concentration. The text has this: (§1) Senescent cells show common biochemical markers such as expression of an acidic senescence-associated β-galactosidase (SA-β-Gal) activity. While senescence has been characterized primarily in cultured cells, there is also evidence that it occurs in vivo. Cells expressing markers of senescence such as SA-β-Gal have been identified in normal tissues. To determine whether modified Mitocreatine analogues may influence the scenesence in aged fibroblasts, a 96-well Cellular Senescence Assay (SA-β-Gal Fluorometric Format) Cat # CBA-231 Cell Biolabs, Inc. was employed and buffers referenced were supplied by the manufacturer and in some cases freshly prepared prior to usage according to the manufacturer's instructions.
(§2) The cells utilized were Human Skin Fibroblast acquired from Coriell Cell Repository. The cell line AG11073 is untransformed human skin fibroblasts from a person. The primary culture was initiated from explants of a 2 mm-punch biopsy. The cell line AG16409 was untransformed human skin fibroblasts from a person.
(§3) Cells were grown in a 96 well plate. […]
(§4) 50 μL, of the reaction mixture was removed to a 96-well plate suitable for fluorescence measurement. The reaction was stopped by adding 200 μL of Stop solution and fluorescence was measured with a fluorescence plate reader (PHERA Star FS from BMG Labtech) at 360 nm (Excitation)/465 nm (Emission).

The subject of assay [3] is AG11073 untransformed human skin fibroblasts from a person. The experiment in a line: Cellular senescence assay (SA-β-Gal fluorometric), aged fibroblasts. The settings on record: 5 nM to 200 nM, p<0.01 for 5-100 nM, p<0.05 for 200 nM. It is filed as cell-based.
From the text: as §1, §2, §3, §4

Assay [4] has as its system ARPE-19 cells, a retinal pigmented epithelial cell line. The experiment in a line: DCFDA ROS production in senescent ARPE-19 cells. Type of assay: cell-based, human. The settings on record: forty-eight hours after treatment; increasing concentrations. The protocol:
In the present invention ARPE-19 cells were used to evaluate whether Mitocreatine improves mitochondrial parameters and reduces ROS in a cell model of AMD. The cells were prematurely senescenced according to the protocol of Glotin et al. (2008). ARPE-19 cells, a retinal pigmented epithelial cell line, were prematurely senesced according to the protocol of Glotin et al. (2008). Cells were plated in a 96 well plate for analysis of reactive oxygen species (ROS) production using DCFDA, a fluorogenic dye that is oxidized by hydroxyl, peroxyl and other ROS.

Assay [5] concerns BJ human fibroblast cells. Put plainly: Survival of fibroblasts treated with chemotherapeutic agents (DAPI fluorescence). The settings on record: 48 hours, added simultaneously. It is filed as cell-based. As for the experimental part:
Fibroblasts were incubated with increasing amounts of Mitocreatine and certain anti-neoplastic agents, such as Cetuximab, Gemcitabine and Temozolomide. After incubation, cells were washed and the number of adherent (i.e. surviving) cells was assessed by DAPI fluorescence, which was measured utilizing a plate reader (PHERA Star FS from BMG Labtech). For these experiments two kinds of cells were used. Either the Human hepatocellular liver carcinoma cell line HepG2, or the BJ human fibroblast cells, which are established from normal human foreskin. […] Mitocreatine and the antineoplastic agent were added simultaneously.

As for `CN(CC(=O)NCCC[P+](c1ccccc1)(c1ccccc1)c1ccccc1)C(=N)N.Cl.[Cl-]` [Mitocreatine, N^2-[ammonio(imino)methyl]-N^2-methyl-N-[3-(triphenylphosphonio)propyl] glycinamide dichloride], in the assay on C57BL/6J mice, the “strength (fore limb grip force)” value was “Increases Endurance and Strength”. Further, the “induction in collagen type I levels” value in assay [1] (25 nM for seven days, fluorescent intensity per area unit normalized to untreated cells) came out at 7 fold. Moreover, in assay [1] (25 nM once daily for seven days), the “intracellular collagen type I” value is given as “significant increase in intracellular collagen; also recorded: significant increase in collagen type I expression”. In addition, the “cell numbers / cell proliferation” value in assay [1] (25 nM once daily for seven days, senescent cells) was “significant increase in cell numbers; also recorded: induced cell proliferation”. Also, the figures for the “β-galactosidase expression/activity (senescence marker)” value in assay [2] and in assay [3] were “this decrease failed to reach statistical significance; also recorded: statistically insignificant decrease” and “statistically significant decrease; also recorded: retards senescence”, respectively. The ROS production entry in assay [4] is given as “dose-independent decrease”. Besides, the survival of fibroblasts result in assay [5] (Gemcitabine (80 μM)), in assay [5] (Temozolomide (1 mM)) and in assay [5] (high concentrations of Cetuximab) was “improved the survival” in each case.
